In patent publication US20250367167A1, “COMPOSITION FOR MITOCHONDRIAL MODIFICATION COMPRISING A COMBINATION OF TWO OR MORE NATURAL PIGMENTS” (University of Seoul Industry Cooperation Foundation, priority 2024, published 2025):
Values joined by “and” are separate entries in the source; they are usually repeats but may differ in a detail not shown here. Equal entries are not always repeated.

Experiments:
[1] = system: mitochondrial electron transport chain protein complexes; test: ATP production after treatment with inhibitors of electron transport chain protein complexes; type: biochemical, human; conditions: 2 μM inhibitor, 1 hour; C@mt; light 640-680 nm, 5 mW, 80 minutes
Protocol: It is generally known that ATP is produced through protein complexes involved in the electron transport process during the oxidative phosphorylation process of mitochondria. Accordingly, an analysis was performed using the ATP Assay Kit (Abcam) to evaluate the amount of ATP production when treating with inhibitors for each protein complex.
A total of 50 μL of mitochondria including each combination of natural pigments (C@mt, BC@mt, AC@mt, or BAC@mt) and 2 μM of inhibitors (Rotenone, Malonate, Antimycin A or Cyanide) for each protein complex were added to the E-tube and incubated at room temperature for 1 hour. Then, the supernatant was removed using a centrifuge (12,000 g, 15 minutes) and resuspended in 50 μL of PBS. 50 μL of mitochondria including a combination of natural pigments treated with inhibitors were added to each 96-well black plate, and irradiated with light having a wavelength of 640-680 nm at an intensity of 5 mW for 80 minutes. […]
Then, the amount of ATP production was measured by measuring the fluorescence intensity (Ex/Em=535/587 nm) using a microplate reader. The amount of ATP production was calculated by subtracting the fluorescence value measured upon irradiation with light for 0 minutes from the fluorescence value measured upon irradiation with light for 80 minutes, and the results are shown in FIGS. 8A and 8B.

[2] = Absorption spectrum analysis of natural pigments (UV/Vis); type: physicochemical; conditions: 100 μM β-carotene, 60 μM anthocyanins, 40 μM chlorophyll a
Protocol: In order to analyze the absorbance spectra of three natural pigments (i.e., β-carotene, delphinidin chloride (anthocyanin), and chlorophyll a (Sigma-Aldrich)), the absorbance analysis was performed using a UV/Vis NANO spectrophotometer (Nabi).
In the drawing, “Experimental result” corresponds to the actually-measured absorption spectrum, and “Calculated result” represents the result of added-up values of the absorption spectrum of single natural pigments.
The results of the absorption spectrum analysis over time by mixing 100 µM B-carotene, 60 μM anthocyanin, and 40 μM chlorophyll a in various combinations are shown in FIG. 2E to 2H.

Row | wavelength of high absorbance (absorption spectrum) [2] | SMILES | ATP production after inhibitor treatment [1]
1 | – | O=C(O)CC(=O)O [malonate, Malonate] | rapid decrease
2 | 555 nm | Oc1cc(O)c2cc(O)c(-c3cc(O)c(O)c(O)c3)[o+]c2c1 [anthocyanins, delphinidin chloride] | –
3 | 475 nm | CC1=C(/C=C/C(C)=C/C=C/C(C)=C/C=C/C=C(C)/C=C/C=C(C)/C=C/C2=C(C)CCCC2(C)C)C(C)(C)CCC1 [β-carotene] | –

Row | SMILES | wavelength of high absorbance (absorption spectrum) [2] | ATP production after inhibitor treatment [1]
4 | C=Cc1c(C)c2cc3nc(c4c5[n-]c(cc6nc(cc1[n-]2)C(C)=C6CC)c(C)c5C(=O)[C@@H]4C(=O)OC)[C@@H](CCC(=O)OC/C=C(\C)CCC[C@H](C)CCC[C@H](C)CCCC(C)C)[C@@H]3C.[Mg+2] [chlorophyll a] | 415 nm and 662 nm | –
